Data published in patent US20240138404A1, “DISPENSER AND METHOD OF USE THEREOF” (S.C. JOHNSON & SON, INC., priority 2019, published 2024).

Tests used:
[1] = Emanation (release) rate of active agent from three-layer substrate 250 by weight loss over 40 days (Example 1, FIG. 13); format: physicochemical; conditions: substrate 250, approx. 30 cm^2, dosed with approx. 75 mg active agent
[2] = Emanation rate of transfluthrin from dispensing device 200 with substrate 250 in a sealed chamber over 75 days (Example 2, FIGS. 15A-15C); format: physicochemical; conditions: for constant emanation rate: dose about 2400 mg
Experimental: In connection with the examples herein, the emanation rates and the amount of active agent, e.g., an amount of transfluthrin, remaining in the substrate of the examples herein were measured by analyzing the weight loss of a particular substrate over time. More particularly, the amount of active agent remaining within a particular substrate may be calculated by first measuring the substrate 250 prior to dosing the substrate 250 with the active agent (or volatile material) and then subtracting that value from the weight of the substrate 250 at any given time after dosing. For example, with reference to Example 1, an initial weight of the substrate 250 was measured, the substrate 250 was dosed with an active agent (i.e., transfluthrin or metofluthrin), and a weight of the substrate 250 was measured multiple times after initial dosage and after emanation of the active agent into the ambient environment. The initial weight of the substrate 250 was then subtracted from a weight of the substrate 250 after initial dosage and this value indicated the remaining active agent within the substrate 250. Further, after determining the remaining active agent within the substrate 250, the amount of active agent (or volatile material) emanated to the ambient environment may also be calculated by subtracting the amount of active agent remaining in the substrate 250 from the initial dosage amount of the active agent. All weight measurements can be performed on an analytical scale. Further, the examples herein were conducted in a closed environment, such as a sealed chamber, having a controlled airflow rate.
In this example, the substrate 250 includes three layers, such as the first layer 252, the second layer 254, and the third layer 256. Further, in this embodiment, the first layer 252 is a woven material having a honeycomb weave pattern, a pore size of 3 mm and a thickness of 0.3 mm; the second layer 254 is a fibrous material constructed from polyester and the substrate 250 has a surface density of about 340 g/m^2; and the third layer 256 is a woven material having a honeycomb weave pattern, a pore size of 3 mm and a thickness of 0.3 mm. The substrate 250 was dosed with about 2400 mg of transfluthrin and the concentration of the transfluthrin within the substrate 250 at different locations in a sealed chamber was measured over a period of 75 days. During this trial, the substrate 250 was exposed to an airflow of about 4.8 meters/minute.

[3] = first location within sealed chamber (FIG. 15A)
[4] = second location within sealed chamber (FIG. 15B)
[5] = third location within sealed chamber (FIG. 15C)

Structure (SMILES) | constant linear release (emanation) rate [1] | time over which the substrate emanated the volatile material at constant linear rate [1] | period of emanation at constant, linear rate, from linear regression lines ([2]; extrapolated from the linear regression lines of FIGS. 15A-15C) | period of constant emanation [2, 3] | constant emanation rate [2, 3] | period of constant emanation [2, 4] | constant emanation rate [2, 4] | period of constant emanation [2, 5] | constant emanation rate [2, 5]
C/C=C/C1C(C(=O)OCc2c(F)c(F)c(COC)c(F)c2F)C1(C)C (centres unmarked) [metofluthrin] | about 1.9 mg/day | 20 days | – | – | – | – | – | – | –
CC1(C)[C@H](C=C(Cl)Cl)[C@H]1C(=O)OCc1c(F)c(F)cc(F)c1F [transfluthrin] | about 1.5 mg/day | approximately 36 days | exceeding one year | greater than 70 days | about 4 mg/day | greater than 70 days | about 6 mg/day | greater than 70 days | about 4 mg/day
